SMILES strings stand for the structures.

The test system of this assay is M. catarrhalis A894. Description: Minimal inhibitory concentration (MIC), microdilution method in cation-adjusted Mueller-Hinton Broth (CLSI M7-A7). The format is cell-based. The settings on record: Moraxella catarrhalis, strain A894. The protocol:
Minimal inhibitory concentrations (MICs; mg/1) were determined in cation-adjusted Mueller-Hinton Broth by a microdilution method following the description given in “Methods for Dilution Antimicrobial Susceptibility Tests for Bacteria that Grow Aerobically”, Approved standard, 7th ed., Clinical and Laboratory Standards Institute (CLSI) Document M7-A7, Wayne, Pa., USA, 2006.
Take `O=C1CSc2ccc(N3C[C@H](CCNCC4Cn5c(=O)ccc6ncc(F)c4c65)OC3=O)cc2N1` (mixture of isomers) [Example 99, (RS)-3-fluoro-4-({2-[(S)-2-oxo-3-(3-oxo-3,4-dihydro-2H-benzo[1,4]thiazin-6-yl)-oxazolidin-5-yl]-ethylamino}-methyl)-4,5-dihydro-pyrrolo[3,2,1-de][1,5]naphthyridin-7-one]: the MIC was at most 0.031 µg/mL.

The compound `O=C1CSc2ccc(N3C[C@@H](CNCC4Cn5c(=O)ccc6ncc(F)c4c65)OC3=O)cc2N1` (mixture of isomers) [Example 100, (RS)-3-fluoro-4-({[(R)-2-oxo-3-(3-oxo-3,4-dihydro-2H-benzo[1,4]thiazin-6-yl)-oxazolidin-5-ylmethyl]-amino}-methyl)-4,5-dihydro-pyrrolo[3,2,1-de][1,5]naphthyridin-7-one] showed an MIC of 0.031 µg/mL.

The compound `O=C1CSc2ccc(N3C[C@H](CNCC4Cn5c(=O)ccc6ncc(F)c4c65)OC3=O)cc2N1` (mixture of isomers) [Example 101, (RS)-3-fluoro-4-({[(S)-2-oxo-3-(3-oxo-3,4-dihydro-2H-benzo[1,4]thiazin-6-yl)-oxazolidin-5-ylmethyl]-amino}-methyl)-4,5-dihydro-pyrrolo[3,2,1-de][1,5]naphthyridin-7-one] gave an MIC of at most 0.031 µg/mL.

Take `O=C1COc2ccc(N3C[C@H](CCNCC4Cn5c(=O)ccc6ncc(F)c4c65)OC3=O)cc2N1` (mixture of isomers) [Example 102, (RS)-3-fluoro-4-({2-[(S)-2-oxo-3-(3-oxo-3,4-dihydro-2H-benzo[1,4]oxazin-6-yl)-oxazolidin-5-yl]-ethylamino}-methyl)-4,5-dihydro-pyrrolo[3,2,1-de][1,5]naphthyridin-7-one]: the MIC is at most 0.031 µg/mL.

The compound `O=C1COc2ccc(N3C[C@@H](CCNCC4Cn5c(=O)ccc6ncc(F)c4c65)OC3=O)cc2N1` (mixture of isomers) [Example 103, (RS)-3-fluoro-4-({2-[(R)-2-oxo-3-(3-oxo-3,4-dihydro-2H-benzo[1,4]oxazin-6-yl)-oxazolidin-5-yl]-ethylamino}-methyl)-4,5-dihydro-pyrrolo[3,2,1-de][1,5]naphthyridin-7-one] displayed an MIC of at most 0.031 µg/mL.

`O=C1CSc2ccc(N3C[C@H](CNCC4Cn5c(=O)cnc6cccc4c65)OC3=O)cc2N1` (mixture of isomers) [Example 106, (RS)-6-({[(S)-2-oxo-3-(3-oxo-3,4-dihydro-2H-benzo[1,4]thiazin-6-yl)-oxazolidin-5-ylmethyl]-amino}-methyl)-5,6-dihydro-pyrrolo[1,2,3-de]quinoxalin-3-one] gave an MIC of at most 0.031 µg/mL.

For `O=C1O[C@@H](CCNC2Cn3c(=O)ccc4ccc(F)c2c43)CN1c1ccc2c(c1)OCCO2` (mixture of isomers) [Example 107, (RS)-1-{2-[(S)-3-(2,3-dihydro-benzo[1,4]dioxin-6-yl)-2-oxo-oxazolidin-5-yl]-ethylamino}-9-fluoro-1,2-dihydro-pyrrolo[3,2,1-ij]quinolin-4-one], inhibition of growth (MIC) required 8 µg/mL.

Turning to `O=C1CSc2ccc(N3C[C@H]([C@H](O)CC(=O)N[C@@H]4Cn5c(=O)ccc6ccc(F)c4c65)OC3=O)cc2N1` (mixture of isomers) [Example 108, (RS)—N—((S)-9-fluoro-4-oxo-1,2-dihydro-4H-pyrrolo[3,2,1-ij]quinolin-1-yl)-3-hydroxy-3-[(RS)-2-oxo-3-(3-oxo-3,4-dihydro-2H-benzo[1,4]thiazin-6-yl)-oxazolidin-5-yl]-propionamide], the MIC was at most 0.031 µg/mL.

In turn, `O=C1CSc2ccc(N3C[C@@H](CNCC4Cn5c(=O)cnc6cccc4c65)OC3=O)cc2N1` (mixture of isomers) [Example 110, (RS)-6-({[(R)-2-oxo-3-(3-oxo-3,4-dihydro-2H-benzo[1,4]thiazin-6-yl)-oxazolidin-5-ylmethyl]-amino}-methyl)-5,6-dihydro-pyrrolo[1,2,3-de]quinoxalin-3-one] gave a minimal inhibitory concentration (MIC) of at most 0.031 µg/mL.

The compound `O=C1CSc2ccc(N3C[C@@H](CCCNC4Cn5c(=O)cnc6cccc4c65)OC3=O)nc2N1` (mixture of isomers) [Example 115, (RS)-6-{3-[(R)-2-oxo-3-(3-oxo-3,4-dihydro-2H-pyrido[3,2-b][1,4]thiazin-6-yl)-oxazolidin-5-yl]-propylamino}-5,6-dihydro-pyrrolo[1,2,3-de]quinoxalin-3-one] gave an MIC of at most 0.031 µg/mL.

`O=C1CSc2ccc(N3C[C@@H](CCCNC4Cn5c(=O)ccc6ccc(Br)c4c65)OC3=O)cc2N1` (mixture of isomers) [Example 116, (RS)-9-bromo-1-{3-[(R)-2-oxo-3-(3-oxo-3,4-dihydro-2H-benzo[1,4]thiazin-6-yl)-oxazolidin-5-yl]-propylamino}-1,2-dihydro-pyrrolo[3,2,1-ij]quinolin-4-one] showed an MIC of at most 0.031 µg/mL.

On to `N#Cc1ccc2ccc(=O)n3c2c1C(NCCC[C@@H]1CN(c2ccc4c(c2)NC(=O)CS4)C(=O)O1)C3` (mixture of isomers) [Example 117, (RS)-4-oxo-1-{3-[(R)-2-oxo-3-(3-oxo-3,4-dihydro-2H-benzo[1,4]thiazin-6-yl)-oxazolidin-5-yl]-propylamino}-1,2-dihydro-4H-pyrrolo[3,2,1-ij]quinoline-9-carbonitrile], for which the MIC was at most 0.031 µg/mL.

`N#Cc1ccc2ccc(=O)n3c2c1C(NCCC[C@@H]1CN(c2ccc4c(n2)NC(=O)CS4)C(=O)O1)C3` (mixture of isomers) [Example 118, (RS)-4-oxo-1-{3-[(R)-2-oxo-3-(3-oxo-3,4-dihydro-2H-pyrido[3,2-b][1,4]thiazin-6-yl)-oxazolidin-5-yl]-propylamino}-1,2-dihydro-4H-pyrrolo[3,2,1-ij]quinoline-9-carbonitrile] came in with an MIC of at most 0.031 µg/mL.

The compound `O=C1COc2ccc(N3C[C@H](CCCNC4Cn5c(=O)ccc6ccc(F)c4c65)OC3=O)nc2N1` (mixture of isomers) [Example 124, (RS)-9-fluoro-1-{3-[(S)-2-oxo-3-(3-oxo-3,4-dihydro-2H-pyrido[3,2-b][1,4]oxazin-6-yl)-oxazolidin-5-yl]-propylamino}-1,2-dihydro-pyrrolo[3,2,1-ij]quinolin-4-one] returned a minimal inhibitory concentration (MIC) of at most 0.031 µg/mL.

Compound `O=C1CSc2ccc(N3C[C@@H](CCCNC4Cn5c(=O)ccc6ccc(F)c4c65)OC3=O)nc2N1` (mixture of isomers) [Example 125, (RS)-9-fluoro-1-{3-[(R)-2-oxo-3-(3-oxo-3,4-dihydro-2H-pyrido[3,2-b][1,4]thiazin-6-yl)-oxazolidin-5-yl]-propylamino}-1,2-dihydro-pyrrolo[3,2,1-ij]quinolin-4-one] showed an MIC of at most 0.031 µg/mL.

As to `O=C1CSc2ccc(N3C[C@H](CCCNC4Cn5c(=O)ccc6ccc(F)c4c65)OC3=O)nc2N1` (mixture of isomers) [Example 126, (RS)-9-fluoro-1-{3-[(S)-2-oxo-3-(3-oxo-3,4-dihydro-2H-pyrido[3,2-b][1,4]thiazin-6-yl)-oxazolidin-5-yl]-propylamino}-1,2-dihydro-pyrrolo[3,2,1-ij]quinolin-4-one], the MIC is at most 0.031 µg/mL.

In turn, `Cc1ccc2ccc(=O)n3c2c1C(NCCC[C@@H]1CN(c2ccc4c(c2)NC(=O)CS4)C(=O)O1)C3` (mixture of isomers) [Example 152, (RS)-9-methyl-1-{3-[(R)-2-oxo-3-(3-oxo-3,4-dihydro-2H-benzo[1,4]thiazin-6-yl)-oxazolidin-5-yl]-propylamino}-1,2-dihydro-pyrrolo[3,2,1-ij]quinolin-4-one] registered an MIC of at most 0.031 µg/mL.

In turn, `CN(CCC[C@@H]1CN(c2ccc3c(c2)NC(=O)CS3)C(=O)O1)C1Cn2c(=O)ccc3ccc(F)c1c32` (mixture of isomers) [Example 153, (RS)-9-fluoro-1-(methyl-{3-[(R)-2-oxo-3-(3-oxo-3,4-dihydro-2H-benzo[1,4]thiazin-6-yl)-oxazolidin-5-yl]-propyl}-amino)-1,2-dihydro-pyrrolo[3,2,1-ij]quinolin-4-one] had an MIC of at most 0.031 µg/mL.

For the compound `O=C1COc2ccc(N3C[C@H](CCNCC4Cn5c(=O)cnc6cccc4c65)OC3=O)cc2N1` (mixture of isomers) [Example 154, (RS)-6-({2-[(S)-2-oxo-3-(3-oxo-3,4-dihydro-2H-benzo[1,4]oxazin-6-yl)-oxazolidin-5-yl]-ethylamino}-methyl)-5,6-dihydro-pyrrolo[1,2,3-de]quinoxalin-3-one], the minimum inhibitory concentration (MIC) is at most 0.031 µg/mL.

The compound `O=C1COc2ccc(N3C[C@@H](CCNCC4Cn5c(=O)cnc6cccc4c65)OC3=O)cc2N1` (mixture of isomers) [Example 155, (RS)-6-({2-[(R)-2-oxo-3-(3-oxo-3,4-dihydro-2H-benzo[1,4]oxazin-6-yl)-oxazolidin-5-yl]-ethylamino}-methyl)-5,6-dihydro-pyrrolo[1,2,3-de]quinoxalin-3-one] came in with an MIC of at most 0.031 µg/mL.

`O=C1CSc2ccc(N3C[C@@H](CCNCC4Cn5c(=O)cnc6cccc4c65)OC3=O)cc2N1` (mixture of isomers) [Example 156, (RS)-6-({2-[(R)-2-oxo-3-(3-oxo-3,4-dihydro-2H-benzo[1,4]thiazin-6-yl)-oxazolidin-5-yl]-ethylamino}-methyl)-5,6-dihydro-pyrrolo[1,2,3-de]quinoxalin-3-one] had a minimum inhibitory concentration (MIC) of at most 0.031 µg/mL.

In the case of `O=C1CSc2ccc(N3C[C@H](CCNCC4(O)Cn5c(=O)ccc6ccc(F)c4c65)OC3=O)cc2N1` (mixture of isomers) [Example 174, (RS)-9-fluoro-1-hydroxy-1-({2-[(S)-2-oxo-3-(3-oxo-3,4-dihydro-2H-benzo[1,4]thiazin-6-yl)-oxazolidin-5-yl]-ethylamino}-methyl)-1,2-dihydro-pyrrolo[3,2,1-ij]quinolin-4-one], the MIC is at most 0.031 µg/mL.

`O=C1CSc2ccc(N3C[C@H](CNCC4Cn5c(=O)ccc6cccc4c65)OC3=O)nc2N1` (mixture of isomers) [Example 175, (RS)-1-({[(S)-2-oxo-3-(3-oxo-3,4-dihydro-2H-pyrido[3,2-b][1,4]thiazin-6-yl)-oxazolidin-5-ylmethyl]-amino}-methyl)-1,2-dihydro-pyrrolo[3,2,1-ij]quinolin-4-one] showed an MIC of at most 0.031 µg/mL.
